In patent US9226905B2 (SAMSUNG ELECTRONICS CO., LTD., priority 2011, dated 2016):

What was measured:
[1] = system: blood creatine kinase level; test: Measurement of blood creatine kinase (CK) level; conditions: administered for 3 months
[2] = Water intake of mice on administration of autoclaved DDS; conditions: male mice, at 4-day intervals for 3 months
bacterial growth = test: Bacterial growth inhibitory activity of autoclaved DDS; assay type: cell-based; conditions: DDS added to bacterial medium and autoclaved, compared with control
Experimental: Specifically, DDS was added to a bacterial medium and autoclaved, and then compared with a control.

grip strength of mice = test: Measurement of grip strength; assay type: in vivo, C57BL/6J mice; conditions: 2 mg/kg, 3 months
Experimental: To measure the grip strength of the mice, a grip strength meter (Bioseb) was used. The grip strength of the mice was measured by positioning the mice to grab the grid plate with the forelimbs, slowly pulling the tail in a horizontal direction, and determining the value at the time at which the forelimbs were detached from the grid.

[3] = system: soleus (SOL) and extensor digitorum longus (EDL) muscle weight; test: Muscle weight of SOL and EDL; assay type: in vivo, C57BL/6J mice; conditions: aged mice (23-month-old and 30-month-old), female and male, 2 mg/kg, 3 months
Experimental: (§1) In order to separate muscle from the mice, the mice were anesthetized by injection with sodium pentobarbital (100 mg/kg body weight). One soleus (SOL) and one extensor digitorum longus (EDL) were carefully separated from the hindlimb of each mouse, so that the muscle was not damaged, and the weight of each of the separated muscles was measured.

[4] = system: gastrocnemius (GA) and tibialis anterior (TA) muscle weight; test: Muscle weight of GA and TA; assay type: in vivo, C57BL/6J mice; conditions: aged mice (23-month-old and 30-month-old), female and male, 2 mg/kg, 3 months
Experimental: as §1, with “bodyweight).” for “body weight).”, “gastrocnemius (GA)” for “soleus (SOL)”, “tibialis anterior (TA)” for “extensor digitorum longus (EDL)”

[5] = system: mouse muscles (SOL and EDL); test: Measurement of twitch isometric force; assay type: in vivo, C57BL/6J mice; conditions: SOL and EDL separated from treated mice, 0.2 Hz (100V) twitch stimulation
Experimental: One end of the tendons was anchored to a tissue bath, which was filled with Ringer's solution and to which oxygen was smoothly supplied, and the other end was anchored to a FT03 isometric force transducer (Grass instruments, West Warwick, USA). The twitch and tetanus of the muscle were adjusted by the intensity of electric stimulation. The muscle was stabilized in Ringer's solution for 10 minutes, and then an experiment for muscle contraction function was carried out. To maximize the function of the muscle, the length of the muscle showing the highest response at 0.2 Hz (100V), twitch stimulation, was measured and assigned as Lo.

[6] = system: mouse muscles (SOL and EDL); test: Measurement of tetanus isometric force; assay type: in vivo, C57BL/6J mice; conditions: SOL 150 Hz, 100V, 800 ms, EDL 100 Hz, 400 ms
Text: In the muscle contraction stimulation system, SOL muscle formed the peak plateau under the conditions of 150 Hz, 100 V and 800 ms. […] In this Example, the mice used in Example 6 were used. The mice were rested for a sufficient time after twitch stimulation, and then tetanic stimulation was applied to the mice. As stimulation at the time of formation of a stable graph in which the peak forms the plateau, 150 Hz (100V, 800 ms stimulation time) was used for Soleus, and 100 Hz (100V, 400 ms stimulation time) was used for EDL. Each of these values was used as the peak Isometric force for each muscle, and the results are plotted in unit of mN and shown in FIG. 9.

[7] = mouse, in vivo, 2 mg/kg
Caenorhabditis elegans = conditions: reported; cited from earlier work
[8] = female mice, vs negative control

Structure (SMILES) | blood creatine kinase level [1, 8] | water intake [2] | bacterial growth inhibitory activity (bacterial growth) | grip strength (grip strength of mice; 18-month-old female mice) | grip strength (grip strength of mice; 23-month-old or older female mice) | grip strength (grip strength of mice; male mice) | weight of EDL [3] | weight of SOL [3] | weight of GA [4] | weight of TA [4] | muscle twitch force (reduced with aging) [5] | muscle tetanic force (reduced with aging) [6] | water intake vs control group [7] | increase of life span of Caenorhabditis elegans (Caenorhabditis elegans) | blood creatine kinase level ([1]; 18-month-old or older mice, 2 mg/kg)
CC(C)(C)NCC(O)c1cc(Cl)c(N)c(Cl)c1 (stereo not shown) [Clenbuterol] | equal to or higher than that of the negative control | increased | – | – | – | – | – | – | – | – | – | – | – | – | –
Nc1ccc(S(=O)(=O)c2ccc(N)cc2)cc1 [DDS, diaminodiphenylsulfone] | significantly reduced | – | maintained | not distinct | significantly restored | increased | restored | restored | restored | restored | effectively restored | effectively restored | did not significantly differ | 20-30% | effectively decreases
